Test results from patent US4202824A, “Physiologically active derivatives of esterastin” (Zaidan Hojin Biseibutsu Kagaku Kenkyu Kai, priority 1978, dated 1980).
In brackets after ≈: the same amount, converted by molar mass.

What was measured:
[1] = test system: esterase of pig pancrease; conditions: cited from earlier work
[2] = test system: cholesterol esterase; assay: cholesterol esterase inhibition, cholesterol acetate as substrate, liberated cholesterol determined; format: biochemical; conditions: 37° C., 3 minutes; for cholesterol esterase-inhibiting activity relative to the parent esterastin: printed as 3-fold and 20 times higher
Text: Furthermore, the new compounds of this invention all have advantageously a remarkably higher activity of inhibiting cholesterol esterase than the parent esterastin.

[3] = storage stability; format: physicochemical
Text: In contrast, the new compound, tetrahydroesterastin is fairly stable so that it can be stored in the form of a powder as such for a long time of 1 year or more without lowering its activity.

[4] = target: pig pancreas esterase; assay: esterase-inhibiting activity, crude pig pancreas lipase preparation with p-nitrophenyl acetate as substrate; format: biochemical; conditions: for ID50, dose giving 50% inhibition to esterase: p-nitrophenyl acetate substrate, pH 7.0, 20° C., 30 minutes, pure products; for IC50: pig pancreas esterase, p-nitrophenyl acetate as the substrate, read-out: level giving 50% inhibition of the esterase
Experimental: Thus, a commercially available, crude lipase preparation obtained from pig pancreas is dissolved to a concentration of 0.5% (by weight) in a 0.05M phosphate buffered solution (pH 7.0) containing 0.2% "Triton X-100" (a trade name of an emulsifier consisting of a polyethyleneglycol alkylphenylether, a product of Rohm & Haas Co., U.S.A.). This lipase solution (0.03 ml), 2.92 ml of 0.05 M phosphate buffered solution (pH 7.0) and 0.025 ml of a solution containing a sample of the new compound to be assayed are mixed together, and the resulting mixture (2.975 ml) is warmed at 20° C. for 3 minutes and then admixed with 0.025 ml of a solution containing 10 mg/ml of p-nitrophenyl acetate in methanol to start the reaction of p-nitrophenyl acetate with lipase. After the enzymatic reaction is effected at 20° C. for 30 minutes, absorbance (a) at 400 nm of the resulting reaction solution is measured. On the other hand, absorbance (b) at 400 nm of a control reaction solution obtained from the blank test using the 0.05M phosphate buffered solution not containing the new compound to be assayed is measured in the same way as above. Degree (%) of inhibition to esterase is calculated according to the following equation: [formula]

[5] = test system: cell-mediated immunity; conditions: background statement; cited from earlier work
[6] = test system: inflammation caused by carrageenin; conditions: background statement; cited from earlier work
[7] = test system: cells forming humoral antibody; conditions: background statement; cited from earlier work

SMILES | cholesterol esterase-inhibiting activity relative to the parent esterastin [2] | stability on storage (in words) [3] | ID50, dose giving 50% inhibition to esterase [4] [ng/mL] | IC50 [4] [nM] | also measured
CCOP(=O)(OCC)Oc1ccc([N+](=O)[O-])cc1 [paradoxon] | – | – | – | – | inhibition of the esterase of pig pancreas (in words) [1]: inhibit the esterase
CCCCCCCCCCCC(CC1OC(=O)C1CCCCCC)OC(=O)C(CC(N)=O)NC(C)=O (centres unmarked) [tetrahydroesterastin] | about 3 fold | fairly stable | 3.3 (≈ 0.00646 µM) | 6.4 | storage time as powder without lowering its activity ([3]; stored in the form of a powder as such): ≥ 1 year
CCCCCCCCCCCC(O)CC1OC(=O)C1CCCCCC (centres unmarked) [3,5-di-hydroxy-2-hexylhexadecanoic 1,3-lactone] | – | – | 9 (≈ 0.0254 µM) | 25 | –
CCCCCC=CCC=CCC(O)CC1OC(=O)C1CCCCCC (centres unmarked) [3,5-di-hydroxy-2-hexylhexadeca-7,10-dienoic 1,3-lactone] | about 20 fold | – | 7 (≈ 0.02 µM) | 20 | cholesterol esterase-inhibiting activity relative to tetrahydroesterastin [2]: about 7 times
CCCCCC=CCC=CCC(CC1OC(=O)C1CCCCCC)OC(=O)C(CC(N)=O)NC(C)=O (centres unmarked) [esterastin] | – | fairly unstable | 0.2 (≈ 0.000395 µM) | – | effect on cell-mediated immunity [5]: suppress the cell-mediated immunity; effect on inflammation caused by carrageenin [6]: inhibits the inflammation caused by carrageenin; effect on number of cells forming humoral antibody [7]: reduce the number of the cells forming humoral antibody
